Values of other authors as cited in patent publication US11389512B2, “Use of low molecular weight fractions of human serum albumin in treating diseases” (Ampio Pharmaceuticals, Inc., priority 2015, dated 2022).

Tests used:
[1] = in vivo
[2] = tested on: platelet activating factor

Row | time to be cleared from the body [1] | SMILES | inhibition of platelet activating factor [2]
1 | 5 days | CC(=O)Oc1ccccc1C(=O)O [aspirin, acetylsalicylic acid] | –
2 | – | CC1NC(=O)C(CC(=O)O)NC1=O (centres unmarked) [DA-DKP, 3-methyl-2,5-diketopiperazine-6-acetic acid] | inhibit
